Drawing on ChEMBL document CHEMBL1146747, “Novel lopinavir analogues incorporating heterocyclic replacements of six-member cyclic urea--synthesis and structure-activity relationships” (Bioorg Med Chem Lett, 2004), this text covers EC50 and inhibition for ten molecules.

One experiment deals with MT4. Briefly: Tested for cytopathic effect of HIVIIIB in MT-4 cells in presence of 50% human serum. In kind it is functional, cell-based.
In experiment [1] the target is Human immunodeficiency virus type 1 protease (Human immunodeficiency virus 1) (UniProt Q72874). The experiment can be described thus: Inhibitory activity (0.5 nM) against Protease.

Turning to `Cc1cccc(C)c1OCC(=O)N[C@@H](Cc1ccccc1)[C@@H](O)C[C@H](Cc1ccccc1)NC(=O)[C@H](C(C)C)N1CCCOC1=O`, the 50% effective concentration (EC50) in the experiment on MT4 is 270 nM. For the same molecule, the inhibition in experiment [1] came out at 85%.
For `Cc1cccc(C)c1OCC(=O)N[C@@H](Cc1ccccc1)[C@@H](O)C[C@H](Cc1ccccc1)NC(=O)[C@H](C(C)C)N1CCCN(C)C1=O`, in the experiment with MT4, the EC50 was determined as 1060 nM. The inhibition in experiment [1] stood at 80%.
Taken in the same sequence, the figures for `Cc1cccc(C)c1OCC(=O)N[C@@H](Cc1ccccc1)[C@@H](O)C[C@H](Cc1ccccc1)NC(=O)[C@H](C(C)C)N1C(=O)CCC1=O` were 2510 nM and 58%.
Consider `Cc1cccc(C)c1OCC(=O)N[C@@H](Cc1ccccc1)[C@@H](O)C[C@H](Cc1ccccc1)NC(=O)[C@H](C(C)C)N1CCCNC1=O` [LOPINAVIR], for which the concentration giving a half-maximal response (EC50) with MT4 was 100 nM.
Take `Cc1cccc(C)c1OCC(=O)N[C@@H](Cc1ccccc1)[C@@H](O)C[C@H](Cc1ccccc1)NC(=O)[C@H](C(C)C)N1CCN=C1S`: in the experiment on MT4, the EC50 amounted to 3800 nM. The same molecule returned an inhibition in experiment [1] of 63%.
For `Cc1cccc(C)c1OCC(=O)N[C@@H](Cc1ccccc1)[C@@H](O)C[C@H](Cc1ccccc1)NC(=O)[C@H](C(C)C)N1CCCC1=O`, in the experiment on MT4, the EC50 is 310 nM. In experiment [1], this molecule had an inhibition of 87%.
Taken in the same sequence, the figures for `Cc1cccc(C)c1OCC(=O)N[C@@H](Cc1ccccc1)[C@@H](O)C[C@H](Cc1ccccc1)NC(=O)[C@H](C(C)C)N1CCOC1=O` were 110 nM and 87%.
For `Cc1cccc(C)c1OCC(=O)N[C@@H](Cc1ccccc1)[C@@H](O)C[C@H](Cc1ccccc1)NC(=O)[C@H](C(C)C)N1CCNC(=O)C1=O` the same measures were 3050 nM and 73%.
Taken in the same sequence, the figures for `Cc1cccc(C)c1OCC(=O)N[C@@H](Cc1ccccc1)[C@@H](O)C[C@H](Cc1ccccc1)NC(=O)[C@H](C(C)C)N1CCNC1=O` were 70 nM and 93%.
Regarding `Cc1cccc(C)c1OCC(=O)N[C@@H](Cc1ccccc1)[C@@H](O)C[C@H](Cc1ccccc1)NC(=O)[C@H](C(C)C)N1CCC(=O)NC1=O`, the EC50 in the experiment on MT4 was 140 nM. Moreover, the inhibition in experiment [1] was 100%.

The EC50 is the concentration needed to bring the measured effect to its halfway point. Usually inhibition stands for the drop in the measured response relative to a control, in per cent. A high value points to a strong effect.
